Laboratory results as given in patent US20260378560A1, “APPROACHES TO DESIGNING AND PERFORMING COMPRESSED BIOLOGICAL EXPERIMENTS AND SYSTEMS FOR IMPLEMENTING THE SAME” (EXVIVO LABS INC., priority 2023, published 2026).

What was measured:
[1] = tested on: JURKAT; assay: ATP-based luminescence cell viability (CellTiter Glo), drug response score, JURKAT; settings: screened individually (Compress: None)
[2] = tested on: REH; assay: ATP-based luminescence cell viability (CellTiter Glo), drug response score, REH; parameters: scale not given here
[3] = tested on: CCRF-CFM; assay: ATP-based luminescence cell viability (CellTiter Glo), drug response score, CCRF-CFM; parameters: scale not given here; settings: Target compression
Excerpt: (§1) As part of a screen, a drug could be screened at different concentrations ranging from a lowest concentration to a highest concentration. In such a scenario, multiple data structures may be obtained by the screening platform 210. […] With these multiple data structures, the analysis module 218 can generate a dose-response curve that describes the magnitude of the response of the biological target, as a function of exposure to different concentrations of the drug. Further, the analysis module 218 can calculate a metric that is indicative of the response of the biological target. In the event that the biological target is one of multiple biological targets that are introduced to the pools of drugs, the metric can be used by the screening platform 210 to better understand the relative magnitude of responses. One example of a metric is drug-response score (“DRS”). DRS can be calculated as a continuous function of multiple parameters of the non-linear dose-response curve, including the slope at the half-maximal effective concentration (also called “EC50”) and the top and bottom asymptotes of the dose-response curve. DRS can be calculated as follows: […]
(§2) where y is a continuous function of the variable dose x, a is the maximal response (i.e., the top asymptote of the curve), b is the slope of the curve, c is the IC50 (i.e., half-maximal inhibitory concentration), and d is the minimal response (i.e., the bottom asymptote of the curve). Other examples of metrics include those output by sigmoidal and Hill slide functions that, like DRS, incorporate multiple aspects of the dose-response curve into a continuous function.
(§3) Total cell viability was measured for each cancer cell line using an Adenosine TriPhosphate (“ATP”) assay, and more specifically an ATP-based luminescence assay (i.e., CellTiter Glo). Each cancer drug was screened at multiple concentrations ranging from one nanomolar (nM) to ten micromolar (UM) in order to generate a dose-response curve and calculate a drug response score (“DRS”) for each cancer cell line. The DRS was calculated as a continuous function of multiple parameters of the non-linear dose-response curve, including the slope at the half-maximal effective concentration (also called “EC50”) and the top and bottom asymptotes of the dose-response curve. […] After total cell viability was measured and DRS was calculated, the DRS of each cancer cell line in the pool was deconvolved for each cancer drug.
(§4) DRS for these anchor cell lines are bolded and italicized. Anchors can be identified based on frequency of the cell lines in pools with high DRS versus low DRS. At a high level, an anchor is predicted to be the cell line with the lowest individual DRS. In order to deconvolute individual cell line DRS values from pool DRS values, the anchor can start with an assumed DRS value of zero. Each pool can then be expressed as a polynomial of variables (cell lines in the pool) and constants (DRS value of the pool). The DRS value of each cell line can then be solved for using the anchor value and overlapping polynomial expressions. When multiple values are calculated for the final target solved from the polynomials, then the anchor has a non-zero value that can be determined based on the difference in the calculated value of the final target.
(§5) Each pool represented a co-culture of three cell lines (“Target Compression”).

[4] = tested on: co-culture of three cancer cell lines; assay: Cell viability (CellTiter Glo) of compressed target pools, co-cultures of three cell lines (Target Compression); format: cell-based
Experimental: as §3, §5

[5] = tested on: CCRF-HSB2; assay: ATP-based luminescence cell viability (CellTiter Glo), drug response score, CCRF-HSB2
Excerpt: as §1, §2, §3, §4, §5

[6] = tested on: CCRF-CFM; assay: ATP-based luminescence cell viability (CellTiter Glo), drug response score, CCRF-CFM; parameters: scale not given here
[7] = tested on: pooled samples of three cancer cell lines; assay: Cell viability (CellTiter Glo) of compressed pooled samples of three individually cultured cell lines (Sample Compression); format: cell-based
Experimental: as §3
A benefit of the compression methodology is the ability to compress members of a library into pools for co-culture screens or compress individual cell cultures into pooled samples for measurement. For example, leukemia cell lines can interact in co-cultures through their immune receptors, which may result in cell activation, cytokine production, and other effects that may impact drug sensitivity and resistance. […] Instead of creating compressed target cells in pooled co-cultures, compression was instead used to enable individual cultures of each cell line, with pooled measurements to reduce reagents and instrument time. With individual cultures and sample compression, it was possible to accurately deconvolute DRS for each drug on each cell line, as shown in Table IV.

[8] = tested on: SUP-B15; assay: ATP-based luminescence cell viability (CellTiter Glo), drug response score, SUP-B15; parameters: scale not given here
Excerpt: as §1, §2, §3, §4, §5

[9] = tested on: NALM-6; assay: ATP-based luminescence cell viability (CellTiter Glo), drug response score, NALM-6
Excerpt: as §1, §2, §3, §4, §5

[10] = tested on: SUP-B15; assay: ATP-based luminescence cell viability (CellTiter Glo), drug response score, SUP-B15; parameters: scale not given here; settings: SUP-B15, screened individually (Compress: None)
[11] = tested on: JURKAT; assay: ATP-based luminescence cell viability (CellTiter Glo), drug response score, JURKAT; settings: Target compression
Excerpt: as §1, §2, §3, §4, §5

[12] = tested on: CCRF-HSB2; assay: ATP-based luminescence cell viability (CellTiter Glo), drug response score, CCRF-HSB2; settings: CCRF-HSB2, screened individually (Compress: None)
[13] = Sample compression, 5 Pick 3 pools
[14] = screened individually (Compress: None)
[15] = 5 Pick 3, Pool 1 (REH, SUP-B15, CCRF-CFM)
[16] = 5 Pick 3, Pool 2 (SUP-B15, CCRF-HSB2, MOLT-4)
[17] = 5 Pick 3, Pool 3 (SUP-B15, CCRF-CFM, CCRF-HSB2)
[18] = 5 Pick 3, Pool 4 (REH, CCRF-CFM, MOLT-4)
[19] = 5 Pick 3, Pool 5 (REH, CCRF-HSB2, MOLT-4)

**Q.** With `CC1(C)CCC(CN2CCN(c3ccc(C(=O)NS(=O)(=O)c4ccc(NCC5CCOCC5)c([N+](=O)[O-])c4)c(Oc4cnc5[nH]ccc5c4)c3)CC2)=C(c2ccc(Cl)cc2)C1` [Venetoclax] as the molecule, how does the “drug response score (DRS)” value [1] read?
**A.** Its value is 0.00.

**Q.** And the DRS from deconvolution [2, 13]?
**A.** Its DRS from deconvolution is 1.15.

**Q.** What about the “drug response score (DRS)” value [2, 14] of the same molecule?
**A.** Its value is 3.80.

**Q.** What about the DRS from deconvolution ([3]; 5 Pick 3 pools) of the same molecule?
**A.** Its DRS from deconvolution is 0.28.

**Q.** What about the DRS from deconvolution ([3]; 6 Pick 3 pools) of the same molecule?
**A.** Its DRS from deconvolution is 1.51.

**Q.** And the DRS from deconvolution ([3]; 7 Pick 3 pools)?
**A.** Its DRS from deconvolution is 1.07.

**Q.** And the DRS of pool [4, 15]?
**A.** Its DRS of pool is 14.50.

**Q.** And the DRS of pool [4, 16]?
**A.** The DRS of pool was 13.53.

**Q.** What about the DRS of pool [4, 17] of the same molecule?
**A.** Its DRS of pool is 13.46.

**Q.** What about the DRS of pool [4, 18] of the same molecule?
**A.** The DRS of pool was 2.70.

**Q.** What about the DRS of pool [4, 19] of the same molecule?
**A.** Its DRS of pool is 2.43.

**Q.** And the DRS of pool ([4]; 6 Pick 3, Pool 1 (REH, CCRF-CFM, MOLT-4))?
**A.** Its DRS of pool is 2.60.

**Q.** What about the DRS of pool ([4]; 6 Pick 3, Pool 2 (REH, CCRF-HSB2, MOLT-4)) of the same molecule?
**A.** Its DRS of pool is 2.26.

**Q.** What about the DRS of pool ([4]; 6 Pick 3, Pool 3 (REH, CCRF-CFM, JURKAT)) of the same molecule?
**A.** Its DRS of pool is 1.57.

**Q.** What about the DRS of pool ([4]; 6 Pick 3, Pool 4 (SUP-B15, CCRF-HSB2, JURKAT)) of the same molecule?
**A.** Its DRS of pool is 13.22.

**Q.** What about the DRS of pool ([4]; 6 Pick 3, Pool 5 (SUP-B15, CCRF-CFM, JURKAT)) of the same molecule?
**A.** Its DRS of pool is 12.95.

**Q.** And the DRS of pool ([4]; 6 Pick 3, Pool 6 (SUP-B15, CCRF-HSB2, MOLT-4))?
**A.** The DRS of pool was 13.01.

**Q.** And the DRS of pool ([4]; 7 Pick 3, Pool 1 (SUP-B15, CCRF-CFM, JURKAT))?
**A.** The DRS of pool was 12.97.

**Q.** What about the DRS of pool ([4]; 7 Pick 3, Pool 2 (SUP-B15, CCRF-HSB2, NALM-6)) of the same molecule?
**A.** Its DRS of pool is 14.37.

**Q.** What about the DRS of pool ([4]; 7 Pick 3, Pool 3 (SUP-B15, CCRF-CFM, NALM-6)) of the same molecule?
**A.** Its DRS of pool is 15.70.

**Q.** And the DRS of pool ([4]; 7 Pick 3, Pool 4 (REH, CCRF-HSB2, JURKAT))?
**A.** Its DRS of pool is 1.25.

**Q.** What about the DRS of pool ([4]; 7 Pick 3, Pool 5 (REH, MOLT-4, NALM-6)) of the same molecule?
**A.** The DRS of pool was 4.62.

**Q.** What about the DRS of pool ([4]; 7 Pick 3, Pool 6 (REH, MOLT-4, JURKAT)) of the same molecule?
**A.** The DRS of pool was 2.25.

**Q.** And the DRS of pool ([4]; 7 Pick 3, Pool 7 (CCRF-CFM, CCRF-HSB2, MOLT-4))?
**A.** The DRS of pool was 1.35.

**Q.** And the DRS from deconvolution ([5]; CCRF-HSB2, Sample compression, 5 Pick 3 pools)?
**A.** Its DRS from deconvolution is 0.00.

**Q.** And the DRS from deconvolution ([5]; CCRF-HSB2, Target compression, 5 Pick 3 pools)?
**A.** The DRS from deconvolution was 0.00.

**Q.** And the DRS from deconvolution ([5]; CCRF-HSB2, Target compression, 6 Pick 3 pools)?
**A.** The DRS from deconvolution was 0.00.

**Q.** What about the DRS from deconvolution ([5]; CCRF-HSB2, Target compression, 7 Pick 3 pools) of the same molecule?
**A.** Its DRS from deconvolution is 0.00.

**Q.** What about the DRS from deconvolution [6, 13] of the same molecule?
**A.** Its DRS from deconvolution is 0.50.

**Q.** What about the “drug response score (DRS)” value [6, 14] of the same molecule?
**A.** Its value is 1.10.

**Q.** What about the DRS of pool [7, 15] of the same molecule?
**A.** Its DRS of pool is 13.99.

**Q.** What about the DRS of pool [7, 16] of the same molecule?
**A.** The DRS of pool was 13.60.

**Q.** And the DRS of pool [7, 17]?
**A.** The DRS of pool was 12.57.

**Q.** And the DRS of pool [7, 18]?
**A.** The DRS of pool was 2.91.

**Q.** What about the DRS of pool [7, 19] of the same molecule?
**A.** The DRS of pool was 2.41.

**Q.** What about the DRS from deconvolution ([8]; SUP-B15, Sample compression, 5 Pick 3 pools) of the same molecule?
**A.** The DRS from deconvolution was 37.02.

**Q.** What about the DRS from deconvolution ([8]; SUP-B15, Target compression, 5 Pick 3 pools) of the same molecule?
**A.** The DRS from deconvolution was 37.99.

**Q.** And the DRS from deconvolution ([8]; SUP-B15, Target compression, 6 Pick 3 pools)?
**A.** The DRS from deconvolution was 37.35.

**Q.** What about the DRS from deconvolution ([8]; SUP-B15, Target compression, 7 Pick 3 pools) of the same molecule?
**A.** Its DRS from deconvolution is 35.04.

**Q.** What about the DRS from deconvolution ([9]; NALM-6, Target compression, 7 Pick 3 pools) of the same molecule?
**A.** Its DRS from deconvolution is 9.54.

**Q.** And the “drug response score (DRS)” value ([9]; NALM-6, screened individually (Compress: None))?
**A.** Its value is 7.30.

**Q.** What about the “drug response score (DRS)” value [10] of the same molecule?
**A.** The value was 37.40.

**Q.** What about the DRS from deconvolution ([11]; 6 Pick 3 pools) of the same molecule?
**A.** Its DRS from deconvolution is 0.00.

**Q.** And the DRS from deconvolution ([11]; 7 Pick 3 pools)?
**A.** Its DRS from deconvolution is 1.88.

**Q.** And the “drug response score (DRS)” value [12]?
**A.** Its value is 0.00.
